Reference: patent publication US8168651B2, “Protein kinase modulators” (Cylene Pharmaceuticals, Inc., priority 2008, dated 2012)
Read-outs that look alike come from different tables or passages of the source.

Experiments:
[1] = test system: HCT-116 human colorectal carcinoma cells; assay: Cell-proliferation assay using Alamar Blue dye; format: cell-based; settings: Homo sapiens;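 note: cells exposed to compound for about 4 days, then Alamar Blue added and dye fluorescence read after about 4 h, compared with medium-only control wells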
recombinant human PIM1 = recombinant human PIM1 (Homo sapiens (Human), UniProt P11309); assay: PIM-1 kinase activity in cell-free in vitro assay; format: biochemical; settings: for inhibition at 0.5 µM: 500 nM compound, read-out: PIM-1: % inh 500 nM
K-562 [2] = assay: Cell proliferation modulatory activity, K-562; format: cell-based; settings: Homo sapiens, K562
Jurkat = assay: Cell proliferation modulatory activity, Jurkat; format: cell-based; settings: Homo sapiens
K-562 [3] = assay: Cell proliferation modulatory activity, K-562; format: cell-based; settings: Homo sapiens, K562; remark: listed apart in the source
MV-4-11 [4] = assay: Cell proliferation modulatory activity, MV-4-11; format: cell-based; settings: Homo sapiens, MV4-11
recombinant human CK2 = recombinant human CK2 (Homo sapiens (Human), UniProt P68400); assay: CK2 assay (cell-free, 33P-ATP filter plate); format: biochemical; settings: cell-free assay; for IC50: 15 um ATP, read-out: CK2 (15 um ATP) IC50; for inhibition at 0.5 µM: 500 nM compound, read-out: CK2: % inh 500 nM
Flt3 = Flt3 (Homo sapiens (Human), UniProt P36888); assay: FLT-3 kinase activity in cell free in vitro assay; format: biochemical; settings: cell-free assay
K-562 [5] = assay: Cell proliferation modulatory activity, K-562; format: cell-based; settings: Homo sapiens, K562; K-562 cells
MV-4-11 [6] = assay: Cell proliferation modulatory activity, MV-4-11; format: cell-based; settings: Homo sapiens, MV4-11; MV-4-11 cells
[7] = HCT-116, read-out: HCT-116 (uM), cell proliferation modulatory activity, HCT-116, second column
[8] = HCT-116, read-out: HCT-116 (uM), cell proliferation modulatory activity, HCT-116, second HCT-116 column (c8)
[9] = HCT-116, HCT-116, second HCT-116 column (c8), read-out: HCT-116 (uM), cell proliferation modulatory activity
[10] = HCT-116, second HCT-116 column (c8), read-out: HCT-116 (uM) cell proliferation modulatory activity

recombinant human PIM1, sequence (P11309 whole entry): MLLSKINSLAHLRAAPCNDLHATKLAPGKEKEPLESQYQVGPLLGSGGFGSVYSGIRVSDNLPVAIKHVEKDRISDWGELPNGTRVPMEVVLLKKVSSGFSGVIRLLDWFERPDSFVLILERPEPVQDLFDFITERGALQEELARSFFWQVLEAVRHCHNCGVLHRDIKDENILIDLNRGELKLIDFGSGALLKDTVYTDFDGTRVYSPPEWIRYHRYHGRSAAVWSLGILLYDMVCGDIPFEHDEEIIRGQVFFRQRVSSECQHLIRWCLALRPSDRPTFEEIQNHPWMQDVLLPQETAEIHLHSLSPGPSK
Flt3, sequence (P36888 27-993): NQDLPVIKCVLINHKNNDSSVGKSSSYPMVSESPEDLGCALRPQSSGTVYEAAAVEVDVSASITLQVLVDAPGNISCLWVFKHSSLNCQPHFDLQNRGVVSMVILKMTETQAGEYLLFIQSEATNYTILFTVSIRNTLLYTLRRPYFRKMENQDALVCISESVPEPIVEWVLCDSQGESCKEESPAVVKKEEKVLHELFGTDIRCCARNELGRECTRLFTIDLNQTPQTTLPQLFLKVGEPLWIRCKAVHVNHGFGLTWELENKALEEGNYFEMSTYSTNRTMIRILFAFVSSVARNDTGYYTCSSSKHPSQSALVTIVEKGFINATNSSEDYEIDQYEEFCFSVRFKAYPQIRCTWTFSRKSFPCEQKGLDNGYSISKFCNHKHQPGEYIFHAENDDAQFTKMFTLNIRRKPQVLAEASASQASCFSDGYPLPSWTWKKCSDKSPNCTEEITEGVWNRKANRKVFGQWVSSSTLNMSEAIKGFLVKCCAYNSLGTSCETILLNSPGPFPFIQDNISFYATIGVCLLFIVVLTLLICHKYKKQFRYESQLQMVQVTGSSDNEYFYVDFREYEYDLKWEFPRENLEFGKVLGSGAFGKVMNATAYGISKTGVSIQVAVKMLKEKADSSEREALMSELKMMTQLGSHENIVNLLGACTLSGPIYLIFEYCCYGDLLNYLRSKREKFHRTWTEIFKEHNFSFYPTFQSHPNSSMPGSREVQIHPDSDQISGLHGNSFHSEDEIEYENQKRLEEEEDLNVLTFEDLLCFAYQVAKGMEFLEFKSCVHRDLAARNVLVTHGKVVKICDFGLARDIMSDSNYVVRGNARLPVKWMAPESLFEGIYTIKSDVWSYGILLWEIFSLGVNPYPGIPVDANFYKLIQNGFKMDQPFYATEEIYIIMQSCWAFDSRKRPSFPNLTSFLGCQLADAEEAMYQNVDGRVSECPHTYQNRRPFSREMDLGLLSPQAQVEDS
recombinant human CK2, sequence (P68400 whole entry): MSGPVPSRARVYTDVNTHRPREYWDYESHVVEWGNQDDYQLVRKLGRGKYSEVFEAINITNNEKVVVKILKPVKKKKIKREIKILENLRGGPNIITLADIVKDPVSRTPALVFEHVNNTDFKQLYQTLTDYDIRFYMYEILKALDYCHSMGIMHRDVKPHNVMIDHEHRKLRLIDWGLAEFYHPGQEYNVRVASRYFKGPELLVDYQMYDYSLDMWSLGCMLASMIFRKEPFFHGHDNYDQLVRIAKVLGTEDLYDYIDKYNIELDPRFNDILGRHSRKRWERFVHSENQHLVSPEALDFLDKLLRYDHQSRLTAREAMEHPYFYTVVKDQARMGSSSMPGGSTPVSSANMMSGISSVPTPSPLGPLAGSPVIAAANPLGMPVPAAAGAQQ
recombinant human CK2, sequence (P67870 whole entry partner): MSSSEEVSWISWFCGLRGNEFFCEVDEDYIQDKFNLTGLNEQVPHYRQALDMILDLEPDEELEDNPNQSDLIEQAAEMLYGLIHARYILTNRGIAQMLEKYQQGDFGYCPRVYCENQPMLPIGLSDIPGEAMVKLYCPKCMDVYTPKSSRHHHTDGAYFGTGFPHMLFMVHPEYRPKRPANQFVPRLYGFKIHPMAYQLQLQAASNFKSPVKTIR

inhibition at 0.5 µM (recombinant human PIM1; cell-free assay) [%] | IC50 (Jurkat) [µM] | IC50 (K-562 [3]) [µM] | IC50 (MV-4-11 [4]) [µM] | inhibition at 0.5 µM (recombinant human CK2) [%] | IC50 [1, 10] [µM] | IC50 (Flt3; read-out: FLT-3 (uM) IC50) [µM] | IC50 (K-562 [5]) [µM] | IC50 (MV-4-11 [6]) [µM] | further results | SMILES
 |  |  |  |  |  |  |  |  | IC50 [1, 7]: 7.1 µM; inhibition at 0.5 µM (recombinant human PIM1; cell-free): 77.8%; IC50 (recombinant human PIM1; cell-free): 367 nM; IC50 (K-562 [2]): 1.77 µM | O=C(O)c1ccc2c(c1)nc(Nc1cccc(F)c1)c1ncncc12
18.4 | 2.42 | 0.494 | 0.195 |  |  |  |  |  | IC50 [1, 8]: 1.94 µM | O=C(O)c1ccc2c(c1)nc(Nc1ccccc1)c1nc(NC3CC3)ncc12
73.6 | 3.05 | > 10 | > 10 |  |  |  |  |  | IC50 [1, 8]: 3.99 µM; IC50 (recombinant human PIM1; cell-free assay): 408 nM | O=C(O)c1ccc2c(c1)nc(Nc1ccc(Cl)c(C(F)(F)F)c1)c1ccncc12
 | 1.29 | 0.158 | 0.257 |  |  |  |  |  | IC50 [1, 8]: 7.82 µM | O=C(O)c1ccc2c(c1)nc(Nc1cccc(Cl)c1)c1nc(NC3CC3)ncc12
18.6 | 1.24 | > 10 | 0.655 |  |  |  |  |  |  | CNc1ncc2c(n1)c(Nc1ccc(F)c(Cl)c1)nc1cc(C(=O)O)ccc12
6.63 | 1.54 | > 10 | > 10 |  |  |  |  |  |  | O=C(O)c1ccc2c(c1)nc(Nc1ccc(F)c(Cl)c1)c1nc(NC3CC3)ncc12
12.1 | 1.13 | > 10 | 0.141 |  |  |  |  |  |  | C#Cc1cccc(Nc2nc3cc(C(=O)O)ccc3c3cnc(NCCOCC)nc23)c1
86.7 | 3.45 | > 10 | 0.593 |  |  |  |  |  | IC50 (recombinant human PIM1; cell-free assay): 177 nM | Cc1cccc(Nc2nc3cc(C(=O)O)ccc3c3cnccc23)c1
88.8 | 3.15 | > 10 | 0.354 |  |  |  |  |  | IC50 [1, 8]: 5.14 µM; IC50 (recombinant human PIM1; cell-free assay): 160 nM | O=C(O)c1ccc2c(c1)nc(Nc1cccc(C(F)(F)F)c1)c1ccncc12
-39.8 | 13.7 | > 10 |  |  |  |  |  |  | IC50 (recombinant human CK2): > 750 nM; IC50 [1, 9]: > 10 µM; IC50 (Flt3; read-out: FLT-3): > 0.4 µM | CNC(=O)c1ccc2c(c1)nc(Nc1cccc(Cl)c1)c1ccncc12
-11.9 | 0.436 | > 10 | 0.497 |  |  |  |  |  | IC50 (recombinant human CK2): > 750 nM; IC50 [1, 9]: 0.818 µM | O=C(NC1CC1)c1ccc2c(c1)nc(NC1CC1)c1nc(NC3CC3)ncc12
-0.772 |  | > 10 | 0.069 |  |  |  |  |  | IC50 [1, 9]: > 10 µM; IC50 (Flt3; read-out: FLT-3): > 0.4 µM | O=C(Nc1ccccc1)c1ccc2c(c1)nc(Nc1cccc(Cl)c1)c1ccncc12
-12.8 |  | > 10 | 0.181 |  |  |  |  |  | IC50 [1, 9]: 2.5 µM; IC50 (Flt3; read-out: FLT-3): > 0.4 µM | O=C(NCc1ccncc1)c1ccc2c(c1)nc(Nc1cccc(Cl)c1)c1ccncc12
1.16 |  | > 10 | 0.099 |  |  |  |  |  | IC50 [1, 9]: > 10 µM; IC50 (Flt3; read-out: FLT-3): > 0.4 µM | O=C(NCCN1CCOCC1)c1ccc2c(c1)nc(Nc1cccc(Cl)c1)c1ccncc12
-11.1 |  | > 10 | > 10 |  |  |  |  |  | IC50 [1, 9]: 9.88 µM; IC50 (Flt3; read-out: FLT-3): 0.289 µM | O=C(NCc1ccccn1)c1ccc2c(c1)nc(Nc1cccc(Cl)c1)c1ccncc12
-29.7 |  | > 10 | 0.043 |  |  |  |  |  | IC50 [1, 9]: > 10 µM; IC50 (Flt3; read-out: FLT-3): > 0.4 µM | COCCNC(=O)c1ccc2c(c1)nc(Nc1cccc(Cl)c1)c1ccncc12
-27.8 | 1.18 | 9.79 | 4.62 |  |  |  |  |  | IC50 [1, 9]: 0.545 µM | C#Cc1cccc(Nc2nc3cc(C(=O)N(C)C)ccc3c3cncnc23)c1
92.3 | 15.7 | > 10 | 0.985 |  |  |  |  |  | IC50 [1, 9]: > 10 µM; IC50 (recombinant human PIM1; cell-free assay): 158 nM | Cc1ccccc1Nc1nc2cc(C(=O)O)ccc2c2cnccc12

inhibition at 0.5 µM (recombinant human PIM1; cell-free assay) [%] | IC50 (Jurkat) [µM] | IC50 (K-562 [3]) [µM] | IC50 (MV-4-11 [4]) [µM] | inhibition at 0.5 µM (recombinant human CK2) [%] | IC50 [1, 10] [µM] | IC50 (Flt3; read-out: FLT-3 (uM) IC50) [µM] | IC50 (K-562 [5]) [µM] | IC50 (MV-4-11 [6]) [µM] | further results | SMILES
-22.8 |  |  |  | -42.8 | > 10 | 0.344 | > 10 | 2.82 |  | Clc1cccc(Nc2nc3ccccc3c3cnccc23)c1
11.9 |  |  |  | 67.8 | > 10 | > 0.4 | > 10 | > 10 |  | O=C(O)c1ccc2nc(Nc3cccc(Cl)c3)c3ccncc3c2c1
 |  |  |  |  | > 10 | 0.087 | > 10 | 7.26 | IC50 (recombinant human PIM1; cell-free assay): 339 nM | O=C(O)c1ccc2c(c1)nc(Nc1ccc(Br)cc1F)c1ccncc12
101 |  |  |  | 98.7 | > 10 | 0.031 | 1.56 | 0.25 | IC50 (recombinant human PIM1; cell-free assay): 75 nM | O=C(O)c1ccc2c(c1)nc(Nc1cc(F)cc(Cl)c1)c1ccncc12
71.5 |  |  |  | -9.32 | > 10 | > 0.4 | > 10 | > 10 | IC50 (recombinant human PIM1; cell-free assay): 122 nM | O=C(O)c1ccc2c(c1)nc(Nc1cccc(Cl)c1)c1cnccc12
-9.45 |  |  |  | 66.1 | > 10 | 0.167 | > 10 | 0.373 |  | NC(=O)c1ccc2c(c1)nc(Nc1ccc(F)c(Cl)c1)c1ccncc12
-10.8 |  |  |  | 34.9 | > 10 | 0.075 | > 10 | 2.14 |  | NNC(=O)c1ccc2c(c1)nc(Nc1cccc(Cl)c1)c1ccncc12
-0.614 |  |  |  | 29.9 | 5.17 | 0.236 | > 10 | 0.501 |  | Clc1cccc(Nc2nc3cc(-c4nnco4)ccc3c3cnccc23)c1
5.67 |  |  |  | 55.9 |  | 0.012 | > 10 | 0.222 |  | NC(=O)c1ccc2c(c1)nc(Nc1cc(F)cc(Cl)c1)c1ccncc12
1.09 |  |  |  | 34.4 | 4.28 | 0.006 | 2.46 | 0.12 |  | NC(=O)c1ccc2c(c1)nc(Nc1cccc(C(F)(F)F)c1)c1ccncc12
-15.6 |  |  |  | 14.2 | 4.54 | > 0.4 | 2.61 | 0.691 |  | CONC(=O)c1ccc2c(c1)nc(Nc1cccc(Cl)c1)c1ccncc12
-19.3 |  |  |  | -2.18 | > 10 | 0.09 | 0.546 | 1.06 |  | Clc1cccc(Nc2nc3cc(-c4nnc[nH]4)ccc3c3cnccc23)c1
 |  |  |  |  |  |  |  |  | IC50 [1, 7]: > 10 µM; inhibition at 0.5 µM (recombinant human PIM1; cell-free): 43.1%; IC50 (recombinant human PIM1; cell-free): 1060 nM; IC50 (K-562 [2]): 9.18 µM | O=C(O)c1ccc2c(c1)nc(NCCc1cccc(Cl)c1)c1ccncc12 [drawing 1559]
 |  |  |  |  |  |  |  |  | IC50 [1, 7]: > 10 µM; inhibition at 0.5 µM (recombinant human PIM1; cell-free): 69.7%; IC50 (recombinant human PIM1; cell-free): 441 nM; IC50 (K-562 [2]): 7.17 µM | O=C(O)c1ccc2c(c1)nc(NCCCc1ccccc1)c1ccncc12 [drawing 1561]
-17.3 | 3.13 |  |  |  |  |  |  |  | IC50 (Flt3; read-out: FLT-3): > 0.4 µM | O=C(O)c1ccc2c(c1)nc(Nc1cccc(C(F)(F)F)c1)c1nc(NC3CC3)ncc12 [drawing 1596]
1.48 | 2.04 | > 10 | 0.284 |  |  |  |  |  | IC50 [1, 8]: > 10 µM | C#Cc1cccc(Nc2nc3cc(C(=O)O)ccc3c3cnc(NCC4CCCO4)nc23)c1 (stereo not drawn) [drawing 1605]
3.08 | 0.424 | 0.25 | 0.128 |  |  |  |  |  | IC50 [1, 8]: > 10 µM | C#Cc1cccc(Nc2nc3cc(C(=O)O)ccc3c3cnc(NCC4CC4)nc23)c1 [drawing 1606]
